The numbers were not newly measured in patent US20240415944A1, “Aqueous aprotinin-containing antiviral pharmaceutical composition” (priority 2021, published 2024), which cites them from elsewhere.

Like-named read-outs stand apart in the source and are kept apart here. A value given as a limit tells only on which side of the number the result lay.

In one series the test system is influenza. The conditions noted are these: adult influenza patients.
The conditions of series [1]: clinical trials of acute uncomplicated influenza.
The next series concerns kallikrein. The conditions noted are these: manufacturer data.
The mark [2] stands for this setting: kallikrein inactivating units per mg.

On to `CCOC(=O)C1=C[C@@H](OC(CC)CC)[C@H](NC(C)=O)[C@@H](N)C1` [Oseltamivir, oseltamivir], for which, in the series on influenza, the “mean time to relief of clinical symptoms” value was 97.5 h, the “risk of nausea (RR)” value is 1.60 and the “risk of vomiting (RR)” value is 2.43. Besides, in the series on influenza (versus placebo), the “acceleration of time to relief of clinical symptoms” value was 17.8 to 25.2 h.
Turning to `COC(=O)OCOc1c2n(ccc1=O)N([C@@H]1c3ccccc3SCc3c1ccc(F)c3F)[C@@H]1COCCN1C2=O` [baloxavir, baloxavir marboxil], in series [1], the “adverse reaction: bronchitis” value was 3%, the “adverse reaction: diarrhea” value is 3%, the “adverse reaction: headache” value is listed as 1% and the “adverse reaction: nausea” value is reported as 2%. The “adverse reaction: sinusitis” value in series [1] was 2%.
As for “aprotinin [aprotinin produced by Sigma-Aldrich (USA)]”, in the series on kallikrein (setting [2]), the aprotinin activity was 6500 KIU/mg.
Take “aprotinin [aprotinin produced by Wanhua Biochem (China) No. NATE-1892]”: the aprotinin activity is over 5400 KIU/mg in the series on kallikrein (setting [2]) and over 3.0 EPU/mg with kallikrein.
